Calls of active or inactive are those of the source.
Assays:
Cytochrome P450 2C9 = Cytochrome P450 2C9 (Homo sapiens, UniProt P11712)
Cytochrome P450 2D6 = Cytochrome P450 2D6 (Homo sapiens, UniProt P10635);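 further: CYP2D6 member of a cytochrome P450 panel assay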
H9c2 = experiment: cells; type: functional, cell-based; settings: Rattus norvegicus, H9c2, Myocardium;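 further: confirmatory concentration-response retest of ultra-high-throughput screening hits for modulation of myocardial damage; cell death induced by hydrogen peroxide oxidative stress; compound pretreatment for 60 min then peroxide exposure for 2 h; potency is for protecting the cells against peroxide damage rather than for killing them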
Cytochrome P450 3A4 = Cytochrome P450 3A4 (Homo sapiens, UniProt P08684);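 further: CYP3A4 tested as one member of a cytochrome P450 panel screen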
Sequence of Cytochrome P450 3A4 (P08684 whole entry): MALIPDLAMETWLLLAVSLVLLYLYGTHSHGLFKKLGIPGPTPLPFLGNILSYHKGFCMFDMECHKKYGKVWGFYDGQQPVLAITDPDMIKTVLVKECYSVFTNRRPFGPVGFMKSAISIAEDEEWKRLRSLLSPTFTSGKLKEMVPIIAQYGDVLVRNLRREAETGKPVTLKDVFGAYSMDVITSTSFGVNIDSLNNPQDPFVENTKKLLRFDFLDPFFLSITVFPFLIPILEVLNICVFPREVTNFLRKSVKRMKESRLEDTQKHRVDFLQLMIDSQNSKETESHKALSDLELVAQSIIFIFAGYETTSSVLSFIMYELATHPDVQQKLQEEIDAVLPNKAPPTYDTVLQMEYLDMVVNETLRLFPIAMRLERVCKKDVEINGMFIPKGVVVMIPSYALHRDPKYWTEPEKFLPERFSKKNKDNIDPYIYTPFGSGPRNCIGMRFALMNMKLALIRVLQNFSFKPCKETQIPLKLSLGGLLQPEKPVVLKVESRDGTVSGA

P388 = experiment: cells; type: functional; settings: Mus musculus
SN12K1 = experiment: cells; type: functional; settings: Homo sapiens
P388/ADR = experiment: cells; type: functional; settings: Mus musculus
[1] = growth suppression of PTEN-null colon cells, dose response, cell-based, HCT116 PTEN knockout (AID 1047); type: functional;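 further: HCT116 colon tumor cells with PTEN knocked out; cells exposed to compound for 60 hours before readout; potency for loss of cell viability measured by luminescence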
[2] = growth suppression of beta-catenin-knockout colon cells, dose response, cell-based, HCT116, human colon tumor (AID 1045); type: functional;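 further: HCT116 colon tumor cells with beta catenin knocked out; cells exposed to compound for 60 hours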
Cytochrome P450 2C19 = Cytochrome P450 2C19 (Homo sapiens, UniProt P33261); experiment: Cytochrome panel assay with activity outcomes. Panel member name: p450-cyp2c19 Compounds with AC50 equal or less than 10 uM are considered active; type: functional; settings: read-out: AC50
Sequence of Cytochrome P450 2C19 (P33261 whole entry): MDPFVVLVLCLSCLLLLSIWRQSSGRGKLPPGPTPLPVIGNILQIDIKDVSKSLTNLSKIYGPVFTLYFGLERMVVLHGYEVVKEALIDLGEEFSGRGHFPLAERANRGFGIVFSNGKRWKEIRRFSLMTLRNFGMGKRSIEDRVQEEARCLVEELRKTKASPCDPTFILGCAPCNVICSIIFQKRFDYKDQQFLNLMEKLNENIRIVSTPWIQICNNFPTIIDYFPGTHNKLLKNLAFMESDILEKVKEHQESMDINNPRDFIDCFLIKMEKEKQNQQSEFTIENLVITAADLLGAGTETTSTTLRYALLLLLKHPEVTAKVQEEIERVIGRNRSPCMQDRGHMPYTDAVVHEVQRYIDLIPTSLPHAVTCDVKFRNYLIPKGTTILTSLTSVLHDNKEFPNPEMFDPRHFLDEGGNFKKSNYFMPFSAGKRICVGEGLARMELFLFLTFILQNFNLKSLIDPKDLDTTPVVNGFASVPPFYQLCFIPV

Sequence of Cytochrome P450 2C9 (P11712 whole entry): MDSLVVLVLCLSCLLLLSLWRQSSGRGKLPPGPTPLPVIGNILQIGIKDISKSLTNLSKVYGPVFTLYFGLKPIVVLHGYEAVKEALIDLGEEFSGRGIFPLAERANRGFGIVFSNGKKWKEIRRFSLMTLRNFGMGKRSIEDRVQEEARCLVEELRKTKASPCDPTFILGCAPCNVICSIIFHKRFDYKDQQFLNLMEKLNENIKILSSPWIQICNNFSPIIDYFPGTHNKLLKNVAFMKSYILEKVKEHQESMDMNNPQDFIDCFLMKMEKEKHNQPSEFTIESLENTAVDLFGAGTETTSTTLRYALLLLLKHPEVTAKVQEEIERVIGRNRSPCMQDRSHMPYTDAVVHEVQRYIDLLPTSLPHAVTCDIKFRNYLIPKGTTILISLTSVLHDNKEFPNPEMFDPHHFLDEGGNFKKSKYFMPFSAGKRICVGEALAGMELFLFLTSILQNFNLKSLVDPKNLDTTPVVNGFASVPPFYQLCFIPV
Sequence of Cytochrome P450 2D6 (P10635 whole entry): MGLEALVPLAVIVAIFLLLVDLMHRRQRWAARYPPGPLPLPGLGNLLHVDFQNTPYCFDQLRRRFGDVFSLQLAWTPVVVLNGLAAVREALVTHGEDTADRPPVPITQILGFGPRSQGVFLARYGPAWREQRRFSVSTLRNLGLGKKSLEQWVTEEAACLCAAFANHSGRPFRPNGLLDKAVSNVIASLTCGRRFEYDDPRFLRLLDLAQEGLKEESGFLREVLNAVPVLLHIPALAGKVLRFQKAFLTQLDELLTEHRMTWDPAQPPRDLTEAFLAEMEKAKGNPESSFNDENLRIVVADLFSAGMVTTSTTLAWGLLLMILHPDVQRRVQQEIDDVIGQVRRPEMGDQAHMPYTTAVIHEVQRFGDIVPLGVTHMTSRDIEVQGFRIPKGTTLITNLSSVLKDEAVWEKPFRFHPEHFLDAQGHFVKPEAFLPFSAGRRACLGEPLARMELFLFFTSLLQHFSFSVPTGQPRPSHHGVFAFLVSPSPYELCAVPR

Row | SMILES | GI50 (P388) | GI50 (SN12K1) | GI50 (P388/ADR) | other results
1 | CC(=O)N1c2c(cc(Br)cc2S(=O)(=O)NCC2COc3ccccc3O2)CC1C (stereo not given) |  |  |  | AC50 (Cytochrome P450 2C9): inconclusive; AC50 (Cytochrome P450 2D6): 17.8 µM (inconclusive)
2 | COc1cc(-c2nnc(-c3ccc(N4CCOCC4)cc3)o2)cc(OC)c1OC |  |  |  | IC50 (H9c2): > 79 µM (inactive); AC50 (Cytochrome P450 2C9): inconclusive; AC50 (Cytochrome P450 3A4): 7.94 µM (inconclusive)
3 | CNC(=O)OCc1nc(SSC(C)(C)C)n(C)c1COC(=O)NC | 1.12 µM (inactive) | 5.13 µM (inactive) | 2.47 µM (inactive) | 
4 | O=NN(CCCl)C(=O)N[C@H]1CC[C@@H](C(=O)O)CC1 | 5.14 µM (inactive) | 98.6 µM (inactive) | 5.26 µM (inactive) | 
5 | ClCc1nnc2n1-c1ccc(Cl)cc1SC2 | 0.927 µM (active) | 2.83 µM (inactive) | 1.66 µM (inactive) | 
6 | CCOC(=O)C1=C(c2ccccc2)N=c2s/c(=C\c3ccc(O)cc3)c(=O)n2C1c1cccs1 (stereo not given) |  |  |  | EC50 [1]: 19.7 µM (active); EC50 [2]: 17.9 µM (active); AC50 (Cytochrome P450 2C9): inconclusive; AC50 (Cytochrome P450 2C19): 3.98 µM (inconclusive)
7 | Cc1c(N=NN(C)C)cc[n+]([O-])c1C | > 100 µM (inactive) | > 100 µM (inactive) | > 100 µM (inactive) | 
8 | C=C/C(C)=C/[C@H](C)C(=O)C[C@H](O)CC1CC(=O)NC(=O)C1 | 9.86 µM (inactive) | 35.5 µM (inactive) | 27.2 µM (inactive) | 
9 | O=c1cnn(C2OC(CO)C(O)C2O)c(=S)[nH]1 (stereo not given) | 1.92 µM (inactive) | 3.06 µM (inactive) | 0.933 µM (active) | 
10 | C#CC[C@@]12CC(=O)C[C@@H]1CCC1(C2)OCCO1.C#CC[C@]12CC(=O)CC[C@H]1CC(=O)C2 | 23.7 µM (inactive) | > 100 µM (inactive) | 36.6 µM (inactive) | 
11 | N/C(=N\O)N/N=C\c1cc([N+](=O)[O-])cc([N+](=O)[O-])c1O | 2.3 µM (inactive) | 0.743 µM (active) | 7.59 µM (inactive) | 
12 | CCOC(=O)C(N)CSC(=O)NC (stereo not given) | 30.1 µM (inactive) | 44.1 µM (inactive) | 12.3 µM (inactive) | 
13 | C/C([O-])=C(/c1nc(-c2ccc([N+](=O)[O-])o2)no1)[n+]1cc(C)ccc1C | 54.8 µM (inactive) | 13.4 µM (inactive) | > 100 µM (inactive) | 
14 | CSc1nc2c(ncn2C2OCC(O)C(O)C2O)c(=O)n1C (stereo not given) | > 100 µM (inactive) | > 100 µM (inactive) | > 100 µM (inactive) | 
15 | CCOC(=O)c1ccc(N[C@@H]2c3cc4c(cc3C(c3cc(OC)c(O)c(OC)c3)[C@H]3C(=O)OCC32)OCO4)cc1 (stereo not given in full) | < 0.01 µM (active) | < 0.01 µM (active) | 0.0256 µM (active) | 
16 | COc1cc(C2c3cc4c(cc3[C@@H](Nc3cccc(C(C)=O)c3)C3COC(=O)[C@H]23)OCO4)cc(OC)c1O (stereo not given in full) | < 0.01 µM (active) | < 0.0361 µM (active) | 0.124 µM (active) | 
17 | O=C(NC(c1ccccc1)C(O)C(=O)OCc1ccc2c(c1)C(=O)c1ccccc1C2=O)c1ccccc1 (stereo not given) | 90.2 µM (inactive) | 1.84 µM (inactive) | 33.8 µM (inactive) | 
18 | COc1cc(C2c3cc4c(cc3[C@@H](Nc3ccc(N5CCOCC5)cc3)C3COC(=O)[C@H]23)OCO4)cc(OC)c1O (stereo not given in full) | < 0.01 µM (active) | 1 µM (active) | 0.0735 µM (active) | 
19 | CN(C(=O)c1ccc(OCCCC(=O)O)c(Cl)c1Cl)C1CCCC1 | > 100 µM (inactive) | > 89.5 µM (inactive) | > 100 µM (inactive) | 
20 | CO[C@H]1C[C@](C)(O)Cc2cc3c(c(O)c21)C(=O)c1c(O)cc2c(c1C3=O)O[C@@H]1O[C@@]2(C)[C@H](O)[C@@H](N(C)C)[C@@H]1O | 0.054 µM (active) | 0.0736 µM (active) | 1.21 µM (inactive) | 
